Assay results reported in PubChem BioAssay AID256 (DTP/NCI, 2004).
Toxic doses and inconclusive results are not listed. The calls were made as follows: active = survival T/C of 150% or more; inactive = T/C below 125% in these data.

Tested on: CD2F1 mice, L1210 leukemia ip, survival T/C
Test: NCI In Vivo Anticancer Drug Screen. Data for tumor model L1210 Leukemia (intraperitoneal) in CD2F1 (CDF1) mice
Details: higher = longer survival
Summary of the method: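 Antitumor effect is scored in animals hosting a serially transplanted tumor. Values compare compound-dosed animals against vehicle-only controls as a simple quotient.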

[1] = endpoint: mean survival time, dose: 100.0 mg/kg/injection, schedule: Q04DX003 (ip), vehicle: Klucel (hydroxypropylcellulose) (HPC)
[2] = endpoint: mean survival time, dose: 200.0 mg/kg/injection, schedule: Q04DX003 (ip), vehicle: Klucel (hydroxypropylcellulose) (HPC)
[3] = endpoint: mean survival time, dose: 400.0 mg/kg/injection, schedule: Q04DX003 (ip), vehicle: Klucel (hydroxypropylcellulose) (HPC)
[4] = endpoint: mean survival time, dose: 100.0 mg/kg/injection, schedule: Q01DX009 (ip), vehicle: saline with Tween-80
[5] = endpoint: mean survival time, dose: 100.0 mg/kg/injection, schedule: Q04DX003 (ip), vehicle: saline with Tween-80
[6] = endpoint: mean survival time, dose: 200.0 mg/kg/injection, schedule: Q01DX009 (ip), vehicle: saline with Tween-80
[7] = endpoint: mean survival time, dose: 200.0 mg/kg/injection, schedule: Q04DX003 (ip), vehicle: saline with Tween-80
[8] = endpoint: mean survival time, dose: 400.0 mg/kg/injection, schedule: Q04DX003 (ip), vehicle: saline with Tween-80
[9] = endpoint: mean survival time, dose: 25.0 mg/kg/injection, schedule: Q01DX009 (ip), vehicle: saline with Tween-80
[10] = endpoint: mean survival time, dose: 50.0 mg/kg/injection, schedule: Q01DX009 (ip), vehicle: saline with Tween-80
[11] = endpoint: mean survival time, dose: 12.5 mg/kg/injection, schedule: Q01DX005 (ip), vehicle: other
[12] = endpoint: mean survival time, dose: 25.0 mg/kg/injection, schedule: Q01DX005 (ip), vehicle: other
[13] = endpoint: mean survival time, dose: 50.0 mg/kg/injection, schedule: Q01DX005 (ip), vehicle: other
[14] = endpoint: mean survival time, dose: 25.0 mg/kg/injection, schedule: Q04DX003 (ip), vehicle: saline with Tween-80
[15] = endpoint: mean survival time, dose: 50.0 mg/kg/injection, schedule: Q04DX003 (ip), vehicle: saline with Tween-80

Measured: T/C

C/C=C(\NC1CCCCC1)C(=O)c1ccccc1
inactive: endpoint: mean survival time, dose: 100.0 mg/kg/injection, schedule: Q01DX009 (ip), vehicle: Klucel (hydroxypropylcellulose) (HPC) 100 % of control | [1] 101 % of control | endpoint: mean survival time, dose: 200.0 mg/kg/injection, schedule: Q01DX009 (ip), vehicle: Klucel (hydroxypropylcellulose) (HPC) 109 % of control | [2] 100 % of control | [3] 97 % of control

O=C/C(Cl)=C(/Cl)C(=O)O
inactive: endpoint: mean survival time, dose: 1.25 mg/kg/injection, schedule: Q01DX009 (ip), vehicle: saline with Tween-80 100 % of control | endpoint: mean survival time, dose: 2.5 mg/kg/injection, schedule: Q01DX009 (ip), vehicle: saline with Tween-80 98 % of control | endpoint: mean survival time, dose: 5.0 mg/kg/injection, schedule: Q01DX009 (ip), vehicle: saline with Tween-80 108 % of control | endpoint: mean survival time, dose: 6.25 mg/kg/injection, schedule: Q04DX002 (ip), vehicle: saline with Tween-80 103 % of control | endpoint: mean survival time, dose: 10.0 mg/kg/injection, schedule: Q01DX009 (ip), vehicle: saline with Tween-80 104 % of control | endpoint: mean survival time, dose: 12.5 mg/kg/injection, schedule: Q04DX002 (ip), vehicle: saline with Tween-80 107 % of control | endpoint: mean survival time, dose: 20.0 mg/kg/injection, schedule: Q01DX009 (ip), vehicle: saline with Tween-80 103 % of control | endpoint: mean survival time, dose: 25.0 mg/kg/injection, schedule: Q04DX002 (ip), vehicle: saline with Tween-80 111 % of control

O=C(Nc1cccc(C(F)(F)F)c1)c1cccc(Cl)c1
inactive: endpoint: mean survival time, dose: 100.0 mg/kg/injection, schedule: Q01DX009 (ip), vehicle: saline + alcohol 94 % of control | endpoint: mean survival time, dose: 100.0 mg/kg/injection, schedule: Q04DX003 (ip), vehicle: saline + alcohol 95 % of control | endpoint: mean survival time, dose: 200.0 mg/kg/injection, schedule: Q01DX009 (ip), vehicle: saline + alcohol 94 % of control | endpoint: mean survival time, dose: 200.0 mg/kg/injection, schedule: Q04DX003 (ip), vehicle: saline + alcohol 97 % of control | endpoint: mean survival time, dose: 400.0 mg/kg/injection, schedule: Q01DX009 (ip), vehicle: saline + alcohol 98 % of control | endpoint: mean survival time, dose: 400.0 mg/kg/injection, schedule: Q04DX003 (ip), vehicle: saline + alcohol 101 % of control

COCCNC(=S)SCCN(C(C)C)C(C)C
inactive: endpoint: mean survival time, dose: 100.0 mg/kg/injection, schedule: Q01DX001 (sc), vehicle: olive oil, sesame oil, peanut oil 110 % of control

O=C1CCCCCCCCCCC1C(O)(C(F)(F)F)C(F)(F)F (centres undefined)
inactive: [4] 96 % of control | [5] 91 % of control | [6] 101 % of control | [7] 95 % of control | endpoint: mean survival time, dose: 400.0 mg/kg/injection, schedule: Q01DX009 (ip), vehicle: saline with Tween-80 96 % of control | [8] 91 % of control

Nc1ccc2cc(O)ccc2c1
inactive: endpoint: mean survival time, dose: 12.5 mg/kg/injection, schedule: Q01DX009 (ip), vehicle: saline with Tween-80 91 % of control | [9] 98 % of control | [10] 95 % of control

CCOP(=O)(Nc1ccc(F)cc1)OCC
inactive: endpoint: mean survival time, dose: 50.0 mg/kg/injection, schedule: Q01DX001 (ip), vehicle: carboxymethylcellulose (CMC) 106 % of control | endpoint: mean survival time, dose: 100.0 mg/kg/injection, schedule: Q01DX001 (ip), vehicle: carboxymethylcellulose (CMC) 96 % of control | endpoint: mean survival time, dose: 200.0 mg/kg/injection, schedule: Q01DX001 (ip), vehicle: carboxymethylcellulose (CMC) 100 % of control | endpoint: mean survival time, dose: 400.0 mg/kg/injection, schedule: Q01DX001 (ip), vehicle: carboxymethylcellulose (CMC) 102 % of control

O=C1CN=C(c2ccccn2)c2cc(Br)ccc2N1
inactive: [1] 95 % of control | endpoint: mean survival time, dose: 119.0 mg/kg/injection, schedule: Q01DX009 (ip), vehicle: Klucel (hydroxypropylcellulose) (HPC) 95 % of control | endpoint: mean survival time, dose: 187.0 mg/kg/injection, schedule: Q01DX009 (ip), vehicle: Klucel (hydroxypropylcellulose) (HPC) 100 % of control | [2] 104 % of control | endpoint: mean survival time, dose: 266.0 mg/kg/injection, schedule: Q01DX009 (ip), vehicle: Klucel (hydroxypropylcellulose) (HPC) 95 % of control | endpoint: mean survival time, dose: 400.0 mg/kg/injection, schedule: Q01DX009 (ip), vehicle: Klucel (hydroxypropylcellulose) (HPC) 94 % of control | [3] 104 % of control | endpoint: mean survival time, dose: 600.0 mg/kg/injection, schedule: Q01DX009 (ip), vehicle: Klucel (hydroxypropylcellulose) (HPC) 95 % of control

C=CCC(O)CCCC (centres undefined)
inactive: [10] 103 % of control | [4] 103 % of control | [6] 103 % of control

Nc1nc(NNC(=O)c2ccccc2)c2nonc2n1
inactive: [11] 95 % of control | [12] 95 % of control | [13] 91 % of control | endpoint: mean survival time, dose: 200.0 mg/kg/injection, schedule: Q01DX005 (ip), vehicle: other 91 % of control

CC#CC(=O)SCCNC(=O)CC(C)(C)C
inactive: [9] 96 % of control | [14] 105 % of control | [10] 96 % of control | [15] 96 % of control | [4] 95 % of control | [5] 106 % of control | [6] 97 % of control | [7] 98 % of control

CO/N=C(\N)c1ncn(C2OC3COP(=O)(O)OC3C2O)c1N (centres undefined)
inactive: endpoint: median survival time, dose: 49.8 mg/kg/injection, schedule: Q01DX005 (ip), vehicle: saline 98 % of control | endpoint: median survival time, dose: 99.5 mg/kg/injection, schedule: Q01DX005 (ip), vehicle: saline 100 % of control | endpoint: median survival time, dose: 199.1 mg/kg/injection, schedule: Q01DX005 (ip), vehicle: saline 96 % of control

Cn1cnc(=S)c2ccccc21
inactive: endpoint: mean survival time, dose: 25.0 mg/kg/injection, schedule: Q04DX003 (ip), vehicle: Klucel (hydroxypropylcellulose) (HPC) 104 % of control | endpoint: mean survival time, dose: 50.0 mg/kg/injection, schedule: Q04DX003 (ip), vehicle: Klucel (hydroxypropylcellulose) (HPC) 93 % of control

Cc1cn(C2CC3[O][Sn]([CH3])([CH3])[O]CC3O2)c(=O)[nH]c1=O (centres undefined)
inactive: [11] 105 % of control | [12] 108 % of control | [13] 103 % of control

CCCCCC(C)C1=NC(C)(C)CC(C)O1 (centres undefined)
inactive: endpoint: mean survival time, dose: 5.0 mg/kg/injection, schedule: Q01DX009 (ip), vehicle: saline 94 % of control | endpoint: mean survival time, dose: 10.0 mg/kg/injection, schedule: Q01DX009 (ip), vehicle: saline 95 % of control | endpoint: mean survival time, dose: 20.0 mg/kg/injection, schedule: Q01DX009 (ip), vehicle: saline 97 % of control | endpoint: mean survival time, dose: 100.0 mg/kg/injection, schedule: Q01DX001 (ip), vehicle: saline with Tween-80 97 % of control | endpoint: mean survival time, dose: 200.0 mg/kg/injection, schedule: Q01DX001 (ip), vehicle: saline with Tween-80 93 % of control

C1CC[N-]CC1.C1CC[N-]CC1.O=C(O)CC(=O)O.[Pt+2]
inactive: endpoint: mean survival time, dose: 3.13 mg/kg/injection, schedule: Q04DX003 (ip), vehicle: saline with Tween-80 100 % of control | endpoint: mean survival time, dose: 6.25 mg/kg/injection, schedule: Q04DX003 (ip), vehicle: saline with Tween-80 97 % of control | endpoint: mean survival time, dose: 12.5 mg/kg/injection, schedule: Q04DX003 (ip), vehicle: saline with Tween-80 100 % of control | [14] 100 % of control | [15] 97 % of control | [5] 100 % of control | [7] 96 % of control

CC(C)(C)NC(=O)CCC1C2C=CC(C2)C1C#N (centres undefined)
inactive: [5] 93 % of control | [7] 91 % of control | [8] 98 % of control
